Measured values taken from patent US20100285959A1, “HERBICIDAL MIXTURES” (priority 2006, published 2010).

Key:
[1] = test system: redroot pigweed (AMARE); test: Test 24 growth chamber, postemergence; format: in vivo, Amaranthus retroflexus; details: 17 DAA
Description: (§1) Plants were treated postemergence at the 2-4 leaf growth stage, and each treatment was replicated three times. […] Plants were watered as needed. […] Results for barley and wheat are the means across varieties of the three replicates, and results for the weeds are the means of the three replicates.

[2] = test system: common lambsquarters (CHEAL); test: Test 24 growth chamber, postemergence; format: in vivo, Chenopodium album; details: 17 DAA
Description: as §1

[3] = test system: galium (GALAP); test: Test 24 growth chamber, postemergence; format: in vivo, Galium aparine; details: 17 DAA
Description: as §1

[4] = test system: kochia (KCHSC); test: Test 24 growth chamber, postemergence; format: in vivo, Kochia scoparia; details: 17 DAA
Description: as §1

[5] = test system: wild chamomile (MATCH); test: Test 24 growth chamber, postemergence; format: in vivo, Matricaria chamomilla; details: 17 DAA
Description: as §1

[6] = test system: field poppy (PAPRH); test: Test 24 growth chamber, postemergence; format: in vivo, Papaver rhoeas; details: 17 DAA
Description: as §1

[7] = test system: wild buckwheat (POLCO); test: Test 24 growth chamber, postemergence; format: in vivo, Polygonum convolvulus; details: 17 DAA
Description: as §1

[8] = test system: Russian thistle (SASKR); test: Test 24 growth chamber, postemergence; format: in vivo, Salsola kali; details: 17 DAA
Description: as §1

[9] = test system: wild mustard (SINAR); test: Test 24 growth chamber, postemergence; format: in vivo, Sinapis arvensis; details: 17 DAA
Description: as §1

[10] = test system: common chickweed (STEME); test: Test 24 growth chamber, postemergence; format: in vivo, Stellaria media; details: 17 DAA
Description: as §1

[11] = test system: field violet (VIOAR); test: Test 24 growth chamber, postemergence; format: in vivo, Viola arvensis; details: 17 DAA
Description: as §1

[12] = test system: corn (ZEAMD); test: Test 25 field trial, postemergence, growth as percent of control; format: in vivo, Zea mays ssp. indentata
Source text: (§2) Corn seeds (hybrid ‘Pioneer 31G96 RR’) were planted in mid spring season, 3.8 cm deep in a clay loam soil having 2% organic matter and a pH of 6.6. Plots were 6.1 m long by 3.0 m wide with rows spaced 76 cm apart. Seeds were spaced 15 cm apart within the rows. The field was managed using conventional tillage practices. […] Giant ragweed and Pennsylvania smartweed could only be evaluated 14 days after application. […] Results are the means of the three replicates. This growth inhibition data was converted to results in the form of “plant growth as a percent of control plant growth” using the calculation “100 minus growth inhibition”.
(§3) When this form of Colby's Equation is used, if the observed effects on weeds are less than the expected values, the mixture is synergistic.

[13] = test system: velvetleaf (ABUTH); test: as above; format: in vivo, Abutilon theophrasti
Source text: as §2, §3

[14] = test system: redroot pigweed (AMARE); test: as above; format: in vivo, Amaranthus retroflexus
Source text: as §2, §3

[15] = test system: common ragweed (AMBEL); test: as above; format: in vivo, Ambrosia artemisiifolia
Source text: as §2, §3

[16] = test system: giant ragweed (AMBTR); test: as above; format: in vivo, Ambrosia trifida; details: 14 DAA
Source text: as §2, §3

[17] = test system: common lambsquarters (CHEAL); test: as above; format: in vivo, Chenopodium album
Source text: as §2, §3

[18] = test system: Pennsylvania smartweed (POLPY); test: as above; format: in vivo, Polygonum pensylvanicum; details: 14 DAA
Source text: as §2, §3

[19] = test system: giant foxtail (SETFA); test: as above; format: in vivo, Setaria faberi
Source text: as §2, §3

[20] = Diflufenzopyr 30 g a.i./ha, 14 DAA
[21] = Diflufenzopyr 30 g a.i./ha, 28 DAA
[22] = Diflufenzopyr 30 g a.i./ha, 56 DAA
[23] = Diflufenzopyr 45 g a.i./ha, 14 DAA
[24] = Diflufenzopyr 45 g a.i./ha, 28 DAA
[25] = Diflufenzopyr 45 g a.i./ha, 56 DAA
[26] = Nicosulfuron 15 g a.i./ha, 14 DAA
[27] = Nicosulfuron 15 g a.i./ha, 28 DAA
[28] = Nicosulfuron 15 g a.i./ha, 56 DAA

Nc1c(Cl)c(F)nc(OCC(=O)O)c1Cl [Fluroxypyr]
AMARE Obs (scale 0 to 100) ([1]; Fluroxypyr 62 g a.i./ha): 67 | AMARE Obs (scale 0 to 100) ([1]; Fluroxypyr 125 g a.i./ha): 77 | CHEAL Obs (scale 0 to 100) ([2]; Fluroxypyr 62 g a.i./ha): 47 | CHEAL Obs (scale 0 to 100) ([2]; Fluroxypyr 125 g a.i./ha): 58 | GALAP Obs (scale 0 to 100) ([3]; Fluroxypyr 62 g a.i./ha): 80 | GALAP Obs (scale 0 to 100) ([3]; Fluroxypyr 125 g a.i./ha): 85 | KCHSC Obs (scale 0 to 100) ([4]; Fluroxypyr 62 g a.i./ha): 68 | KCHSC Obs (scale 0 to 100) ([4]; Fluroxypyr 125 g a.i./ha): 73 | MATCH Obs (scale 0 to 100) ([5]; Fluroxypyr 62 g a.i./ha): 60 | MATCH Obs (scale 0 to 100) ([5]; Fluroxypyr 125 g a.i./ha): 65 | PAPRH Obs (scale 0 to 100) ([6]; Fluroxypyr 62 g a.i./ha): 65 | PAPRH Obs (scale 0 to 100) ([6]; Fluroxypyr 125 g a.i./ha): 73 | POLCO Obs (scale 0 to 100) ([7]; Fluroxypyr 62 g a.i./ha): 68 | POLCO Obs (scale 0 to 100) ([7]; Fluroxypyr 125 g a.i./ha): 75 | SASKR Obs (scale 0 to 100) ([8]; Fluroxypyr 62 g a.i./ha): 75 | SASKR Obs (scale 0 to 100) ([8]; Fluroxypyr 125 g a.i./ha): 75 | SINAR Obs (scale 0 to 100) ([9]; Fluroxypyr 62 g a.i./ha): 75 | SINAR Obs (scale 0 to 100) ([9]; Fluroxypyr 125 g a.i./ha): 75 | STEME Obs (scale 0 to 100) ([10]; Fluroxypyr 62 g a.i./ha): 75 | STEME Obs (scale 0 to 100) ([10]; Fluroxypyr 125 g a.i./ha): 83 | VIOAR Obs (scale 0 to 100) ([11]; Fluroxypyr 62 g a.i./ha): 73 | VIOAR Obs (scale 0 to 100) ([11]; Fluroxypyr 125 g a.i./ha): 82

C/C(=N\NC(=O)Nc1cc(F)cc(F)c1)c1ncccc1C(=O)O [Diflufenzopyr]
ZEAMD Obs (percent of control) [12, 20]: 100% | ZEAMD Obs (percent of control) [12, 21]: 83% | ZEAMD Obs (percent of control) [12, 22]: 100% | ZEAMD Obs (percent of control) [12, 23]: 100% | ZEAMD Obs (percent of control) [12, 24]: 88% | ZEAMD Obs (percent of control) [12, 25]: 100% | ABUTH Obs (percent of control) [13, 20]: 28% | ABUTH Obs (percent of control) [13, 21]: 58% | ABUTH Obs (percent of control) [13, 22]: 33% | ABUTH Obs (percent of control) [13, 23]: 15% | ABUTH Obs (percent of control) [13, 24]: 55% | ABUTH Obs (percent of control) [13, 25]: 40% | AMARE Obs (percent of control) [14, 20]: 48% | AMARE Obs (percent of control) [14, 21]: 63% | AMARE Obs (percent of control) [14, 22]: 30% | AMARE Obs (percent of control) [14, 23]: 47% | AMARE Obs (percent of control) [14, 24]: 55% | AMARE Obs (percent of control) [14, 25]: 55% | AMBEL Obs (percent of control) [15, 20]: 60% | AMBEL Obs (percent of control) [15, 21]: 73% | AMBEL Obs (percent of control) [15, 22]: 83% | AMBEL Obs (percent of control) [15, 23]: 57% | AMBEL Obs (percent of control) [15, 24]: 60% | AMBEL Obs (percent of control) [15, 25]: 75% | AMBTR Obs (percent of control) ([16]; Diflufenzopyr 45 g a.i./ha): 75% | CHEAL Obs (percent of control) [17, 20]: 50% | CHEAL Obs (percent of control) [17, 21]: 78% | CHEAL Obs (percent of control) [17, 22]: 10% | CHEAL Obs (percent of control) [17, 23]: 45% | CHEAL Obs (percent of control) [17, 24]: 65% | CHEAL Obs (percent of control) [17, 25]: 0% | POLPY Obs (percent of control) ([18]; Diflufenzopyr 30 g a.i./ha): 30% | POLPY Obs (percent of control) ([18]; Diflufenzopyr 45 g a.i./ha): 35% | SETFA Obs (percent of control) [19, 20]: 40% | SETFA Obs (percent of control) [19, 21]: 60% | SETFA Obs (percent of control) [19, 22]: 68% | SETFA Obs (percent of control) [19, 23]: 40% | SETFA Obs (percent of control) [19, 24]: 58% | SETFA Obs (percent of control) [19, 25]: 60%

COc1cc(OC)nc(NC(=O)NS(=O)(=O)c2ncccc2C(=O)N(C)C)n1 [Nicosulfuron]
ZEAMD Obs (percent of control) [12, 26]: 100% | ZEAMD Obs (percent of control) [12, 27]: 100% | ZEAMD Obs (percent of control) [12, 28]: 100% | ABUTH Obs (percent of control) [13, 26]: 48% | ABUTH Obs (percent of control) [13, 27]: 73% | ABUTH Obs (percent of control) [13, 28]: 100% | AMARE Obs (percent of control) [14, 26]: 2% | AMARE Obs (percent of control) [14, 27]: 2% | AMARE Obs (percent of control) [14, 28]: 33% | AMBEL Obs (percent of control) [15, 26]: 95% | AMBEL Obs (percent of control) [15, 27]: 100% | AMBEL Obs (percent of control) [15, 28]: 100% | AMBTR Obs (percent of control) ([16]; Nicosulfuron 15 g a.i./ha): 100% | CHEAL Obs (percent of control) [17, 26]: 95% | CHEAL Obs (percent of control) [17, 27]: 72% | CHEAL Obs (percent of control) [17, 28]: 53% | POLPY Obs (percent of control) ([18]; Nicosulfuron 15 g a.i./ha): 28% | SETFA Obs (percent of control) [19, 26]: 15% | SETFA Obs (percent of control) [19, 27]: 11% | SETFA Obs (percent of control) [19, 28]: 7%
